The source of these data is patent publication US20010014462A1, “Direct cholesterol esterase assay” (priority 1997, published 2001).

Read-outs that look alike come from different tables or passages of the source.

Experiment [1] relates to cholesterol esterase (EC3.1.1.13). The experiment is described as follows: Microtiter chromogenic detection of cholesterol esterase (Example 7). Particulars: for Substrate preference: BCI-substrates tested; for Reaction (colour, time to detection): cholesterol esterase (0.05 U). In kind it is biochemical.
For a further experiment, the system named is esterase (EC 3.1.1.1). Kind of experiment: Microtitre chromogenic detection of esterase, de-ionized H2O (Examples 2 and 3). In kind it is biochemical. Particulars: for Substrate preference / Speed of chromogenic reactions relative to other BCI substrates: esterase; for Substrate preference: BCI-substrates tested; for Speed of chromogenic reactions relative to other BCI substrates: similar concentration of substrates and enzymes; for Reaction (colour, time to detection): 1 unit esterase, de-ionized H2O. As to the method:
10 μl of esterase (1 unit) was added to substrate samples B, B′, C, C′, D, D′, and E, E′.
Five test samples were prepared.

In experiment [2] the test system is beta-glucosidase (EC 3.2.1.21). The settings on record: 0.5 units glucosidase. As to the method: The experimental results for Experiments 1-12 are described by the color change of the experimental solution. These colors result from the interaction of the enzyme and substrate with the transfer of an electron to a tetrazolium salt. The reactive product, formazan, is detected as dark blue, black. […] The reaction detected required the enzyme, substrate and tetrazolium salt.
Five test samples were prepared. The samples A, B, C, D, E contained the following reactants:
10 μl of H2O was added to substrate sample A to serve as a control. 10 μl of β-glucosidase (0.5 units) was added to substrate samples B, C, D and E.

Experiment [3] deals with B-glucuronidase (EC 3.2.1.31). The settings on record: PBS pH 5.0.
Experimental: (§3) These colors result from the interaction of the enzyme and substrate with the transfer of an electron to a tetrazolium salt. The reactive product, formazan, is detected as dark blue, black. The BCI substrate without MTT is pale blue. PMS and MTT alone are yellow. PMS and BCI is yellow+blue which is green.
Four test samples were prepared. The samples A, B, C, D contained the following reactants:
10 μl of H2O was added to substrate sample A to serve as a control. 10 μl of β-glucuronidase (10 units) was added to substrate samples B, C, and D.
The test system of the next experiment is esterase (EC3.1.1.1). Kind of experiment: Microtiter chromogenic detection of esterase, PBS pH 7.4 (Example 1). In kind it is biochemical. Particulars: 1 unit esterase, visual. As to the method:
(§1) The BCI substrate without MTT is pale blue. PMS and MTT alone are yellow. PMS and BCI is yellow+blue which is green.
Four test samples were prepared.

The test system of experiment [4] is esterase activity in elastase preparation. The experiment is described as follows: Esterase activity and/or contamination in commercial elastase preparation (Example 5). The class given is biochemical. As to the method: (§2) Elastase was serially diluted twofold to signal extinction with elastase substrate. The last dilution yielding robust signal was incubated with the competitive inhibitor elastatinal for 10 minutes—with subsequent addition of esterase substrates.

The subject of experiment [5] is Beta-N-acetylglucosaminidase (EC 3.2.1.30). Kind of experiment: Microtitre chromogenic detection of Beta-N-acetylglucosaminidase (Example 12). The class given is biochemical. Particulars: Beta-N-acetylglucoaminidase 0.125 units.
Text: as §1

Experiment [6] relates to neuraminidase (EC 3.2.1.18). Kind of experiment: Microtitre chromogenic detection of neuraminidase (Example 11). In kind it is biochemical. The settings on record: neuraminidase 0.1 units.
Experimental: as §3
10 μl of H2O was added to substrate sample A as the substrate control. 10 μl of neuraminidase (0.1 units) was added to substrate samples B, C, D and E.
Experiment [7] addresses chloramphenicol acetyltransferase (EC 2.3.1.28) (Escherichia coli, UniProt P62577). Kind of experiment: Microtitre chromogenic detection of chloramphenicol acetyltransferase (Example 10). The class given is biochemical. Particulars: Chloramphenicol acetyl transferase 5U/10 μl.
Text: In a preferred assay of the invention, the enzyme chloramphenicol acetyl transferase (CAT enzyme) reacts with chloramphenicol and […] in the presence of the indicator dimethylthiazol tetrazolium (MTT) and phenazine methosulfate (PMS). The MTT serves as a hydrogen acceptor in the reaction. The reaction can be written as:
CAT+chloramphenicol+acyl coA→CAT-chloramphenicol-CoA CAT-chloramphenicol-CoA+PMS→CAT+PMS.H2+acyl-chloramphenicol+HS-CoA PMS-H2+MTT→formazan+PMS.
as §1
Chloramphenicol acetyl transferase (5U/10 μl) was added to each substrate combination.

In another experiment the target is T1, elastase (EC 3.4.21.36) (Sus scrofa, UniProt P00772).
T1 construct: purchased Sigma lot # 17H8005
The experiment is described as follows: Elastase with elastase substrate, with or without elastatinal (Example 5). In kind it is biochemical. As to the method:
as §2

For experiment [8], the system named is cholesterol oxidase (EC1.1.3.6). The experiment is described as follows: Microtitre chromogenic detection of cholesterol oxidase (Example 8). In kind it is biochemical. Particulars: Cholesterol Oxidase 25 U/ml.
Text: as §1

Setting [9] is: substrate 5 mg/ml + H2O, PMS (no MTT).
Setting [10] is: substrate 5 mg/ml + MTT, H2O (no PMS).
Where [11] appears, read: substrate 5 mg/ml alone (no MTT, no PMS).
The mark [12] stands for this setting: substrate alone (no MTT, no PMS).
Where [13] appears, read: substrate 12.5 mg/ml + H2O, PMS (no MTT).
[14] abbreviates: substrate 12.5 mg/ml + MTT, H2O (no PMS).
Setting [15] is: substrate 12.5 mg/ml + MTT, PMS.

chloramphenicol acetyltransferase (EC 2.3.1.28), sequence (P62577 whole entry, looked up): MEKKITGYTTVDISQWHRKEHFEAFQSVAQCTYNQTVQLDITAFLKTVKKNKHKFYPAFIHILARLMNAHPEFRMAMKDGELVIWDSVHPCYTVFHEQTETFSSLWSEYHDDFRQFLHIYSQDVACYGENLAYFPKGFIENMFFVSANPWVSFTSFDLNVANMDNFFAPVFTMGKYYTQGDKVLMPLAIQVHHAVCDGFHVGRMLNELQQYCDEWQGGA
T1 sequence (P00772 27-266): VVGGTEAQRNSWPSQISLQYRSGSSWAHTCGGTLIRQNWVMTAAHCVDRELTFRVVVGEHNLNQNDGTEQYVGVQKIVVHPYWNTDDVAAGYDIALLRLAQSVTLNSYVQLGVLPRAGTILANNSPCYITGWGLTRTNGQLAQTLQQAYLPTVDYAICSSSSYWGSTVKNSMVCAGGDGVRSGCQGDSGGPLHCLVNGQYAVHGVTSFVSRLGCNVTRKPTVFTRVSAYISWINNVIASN

With “5-Bromo-4-chloro-3-indolyl 1,3 diacetate [BCI-1,3 diacetate]”, the Substrate preference result (in experiment [1] (cholesterol esterase); in the experiment with esterase (EC 3.1.1.1)) was “BCI-acetate>BCI-butyrate> BCI-1,3 diacetate” throughout. Moreover, the “Speed of chromogenic reactions relative to other BCI substrates” value with esterase (EC 3.1.1.1) is “much slower than the corresponding BCI-acetate and slower than the BCI-butyrate reactions”. Moreover, the “Reaction (colour, time to detection)” value is reported as “yellow-blue” in the experiment on esterase (EC 3.1.1.1) (setting [9]); “dark blue (>1 hour)” in the experiment on esterase (EC 3.1.1.1) (setting [10]); “dark blue (>40 minutes)” in the experiment on esterase (EC 3.1.1.1) (substrate 5 mg/ml + MTT, PMS); “pale faint blue” in the experiment with esterase (EC 3.1.1.1) (setting [11]).
In the case of “5-Bromo-4-chloro-3-indolyl-B-D-glucoside [BCI-glucoside]”, the “Reaction (colour, time to detection)” value in experiment [2] (setting [9]) was “yellow-blue - slight change”; in experiment [2] (setting [10]), “dark blue (<5 minutes)”; in [2] (substrate 5 mg/ml + MTT, PMS), “dark blue (<5 minutes)”; in experiment [2] (setting [11]) it was “pale blue (>10 minutes)”.
Consider “5-Bromo-4-chloro-3-indolyl-B-D-glucuronide [BCI glucuronide]”, for which the “Reaction (colour, time to detection)” value in experiment [3] (substrate 10 mg/ml + MTT, H2O (no PMS), 10 units glucuronidase) is “dark blue (<5 minutes)”; in experiment [3] (substrate + H2O (no MTT, no PMS), glucuronidase), “pale blue (after 5 minutes)”; in [3] (substrate + H2O, PMS (no MTT), 10 units glucuronidase) it was “yellow-blue - slight change”; in experiment [3] (substrate + MTT, PMS, 10 units glucuronidase), “dark blue (<5 minutes)”.
With `CC(=O)Oc1c[nH]c2ccc(Br)c(Cl)c12` [BCI-acetate, 5-Bromo-4-chloro-3-indolyl acetate], the Substrate preference result (in experiment [1] (cholesterol esterase); with esterase (EC 3.1.1.1)) was “BCI-acetate>BCI-butyrate> BCI-1,3 diacetate” in each case. Moreover, the “Reaction (colour, time to detection)” value is reported as “yellow-blue (<30 see)” in [1] (substrate + H2O, PMS (no MTT)); “dark blue (<10 sec)” in experiment [1] (substrate + MTT, H2O (no PMS)); “dark blue (instant detection)” in [1] (substrate + MTT, PMS); “pale blue (>10 minutes)” in [1] (setting [12]); “yellow-blue (<30 sec)” in the experiment with esterase (EC 3.1.1.1) (setting [9]); “dark blue (<10 sec)” in the experiment with esterase (EC 3.1.1.1) (setting [10]). The “Reaction (colour, time to detection)” value in the experiment on esterase (EC 3.1.1.1) (substrate 5 mg/ml + MTT, PMS) was “dark blue (instant detection)”; in the experiment with esterase (EC 3.1.1.1) (setting [11]), “pale blue (>10 minutes)”; in the experiment on esterase (EC3.1.1.1) (setting [13]), “yellow-blue - slight change”; with esterase (EC3.1.1.1) (setting [14]), “dark blue < 10 seconds)”; in the experiment on esterase (EC3.1.1.1) (setting [15]), “dark blue (instantaneous)”. Besides, the “Reaction with elastase preparation, no inhibitor” value in [4] (Elastase + H2O, MTT, PMS, BCI-acetate) is “dark blue (<5 minutes)”.
Regarding `CC(=O)N[C@H]1[C@H](Oc2c[nH]c3ccc(Br)c(Cl)c23)O[C@H](CO)[C@@H](O)[C@@H]1O` [BCI-acetylglucosaminide], the “Reaction (colour, time to detection)” value in [5] (setting [13]) was “green”; in experiment [5] (setting [14]), “light blue formazan reaction”; in experiment [5] (setting [15]) it was “dark blue(<2 minutes)”; in experiment [5] (substrate 12.5 mg/ml alone (no MTT, no PMS)) it was “light blue (>5 minutes)”.
In the case of `CC(=O)N[C@H]1[C@H]([C@H](O)[C@H](O)CO)O[C@@](Oc2c[nH]c3ccc(Br)c(Cl)c23)(C(=O)O)C[C@@H]1O` [BCI-acetylneuraminic acid, 5-bromo-4-chloro-3-indolyl acetyl neuraminic acid], the “Reaction (colour, time to detection)” value is listed as “green” in experiment [6] (substrate + H2O, PMS (no MTT)); “light blue formazan reaction” in experiment [6] (substrate + MTT, H2O (no PMS)); “dark blue (>5 minutes)” in experiment [6] (substrate + MTT, PMS); “pale blue (<2 minutes)” in [6] (substrate in H2O (no MTT, no PMS)).
Regarding `CCCC(=O)Oc1c[nH]c2ccc(Br)c(Cl)c12` [BCI-butyrate, 5-Bromo-4-chloro-3-indolyl-butyrate], the Substrate preference result (in [1] (cholesterol esterase); with esterase (EC 3.1.1.1)) was “BCI-acetate>BCI-butyrate> BCI-1,3 diacetate” throughout. Besides, the “Speed of chromogenic reactions relative to other BCI substrates” value is “much slower than the corresponding BCI-acetate reactions” in experiment [1] (cholesterol esterase, similar concentration of substrates and enzymes); “much slower than the corresponding BCI-acetate reactions” with esterase (EC 3.1.1.1). Besides, the “Reaction (colour, time to detection)” value in experiment [1] (substrate + H2O, PMS (no MTT)) is “yellow-blue (<30 minutes)”; in [1] (substrate + MTT, H2O (no PMS)) it was “dark blue (<30 minutes)”; in [1] (substrate + MTT, PMS), “dark blue (<20 minutes)”; in [1] (setting [12]), “pale blue (>1 hour)”; in the experiment with esterase (EC 3.1.1.1) (setting [9]), “yellow-blue (<30 minutes)”; in the experiment with esterase (EC 3.1.1.1) (setting [10]), “dark blue (<30 minutes)”. For the same compound, the “Reaction (colour, time to detection)” value with esterase (EC 3.1.1.1) (substrate 5 mg/ml + MTT, PMS) is “dark blue (<20 minutes)”; in the experiment on esterase (EC 3.1.1.1) (setting [11]), “pale blue (>1 hour)”.
Take `O=C(N[C@H](CO)[C@H](O)c1ccc([N+](=O)[O-])cc1)C(Cl)Cl` [Chloramphenicol]: the “Reaction (colour, time to detection)” value in experiment [7] (Acetyl CoA + H2O, PMS (no MTT)) is “orange - red (<2 minutes)”; in experiment [7] (Acetyl CoA + MTT, H2O (no PMS)), “orange detection (>5 minutes)”; in experiment [7] (Acetyl CoA + MTT, PMS), “yellow”.
On to `C[C@H](NC(=O)CCC(=O)O)C(=O)N[C@@H](C)C(=O)N[C@@H](C)C(=O)Nc1ccc([N+](=O)[O-])cc1` [Elastase substrate, N-succinyl-ALA-ALA-ALA p nitroanilide], for which the “Reaction with elastase, no inhibitor” value at elastase (EC 3.4.21.36) (Elastase + H2O, elastase substrate) is “yellow”.
Consider `CC(C)C[C@H](NC(=O)N[C@H](C(=O)N[C@@H](CCC(N)=O)C(=O)N[C@@H](C)C=O)[C@@H]1CCNC(=N)N1)C(=O)O` [Elastatinal], for which the “Reaction with MTT, PMS, BCI-acetate after incubation with inhibitor” value in experiment [4] (Elastase + Inhibitor, incubated 10 minutes) was “dark blue (<5 minutes)”. At elastase (EC 3.4.21.36) (Elastase + Inhibitor, incubated 10 minutes, elastase substrate N-succinyl-ALA-ALA-ALA p nitroanilide), the “Reaction with elastase substrate after incubation with inhibitor” value was “clear (no color >10 min.)”.
As for `CC(C)CCC[C@@H](C)[C@H]1CC[C@H]2[C@@H]3CC=C4C[C@@H](O)CC[C@]4(C)[C@H]3CC[C@]12C` [cholesterol], the “Reaction (colour, time to detection)” value is given as “yellow, no color change” in experiment [8] (Cholesterol Std 50 mg/dl + H2O, PMS (no MTT)); “yellow, no color change” in experiment [8] (Cholesterol Std 50 mg/dl + MTT, H2O (no PMS)); “dark blue(<1 minutes)” in experiment [8] (Cholesterol Std 50 mg/dl + MTT, PMS); “clear, no color change” in [8] (Cholesterol Std 50 mg/dl in H2O (no MTT, no PMS)).
